Molecular target: T1, HMG-CoA reductase (Homo sapiens, UniProt P04035)
T1 construct: endogenous in cells; host or cells: HepG2 (Korea Cell Line Bank)
T1 sequence (P04035 1-888): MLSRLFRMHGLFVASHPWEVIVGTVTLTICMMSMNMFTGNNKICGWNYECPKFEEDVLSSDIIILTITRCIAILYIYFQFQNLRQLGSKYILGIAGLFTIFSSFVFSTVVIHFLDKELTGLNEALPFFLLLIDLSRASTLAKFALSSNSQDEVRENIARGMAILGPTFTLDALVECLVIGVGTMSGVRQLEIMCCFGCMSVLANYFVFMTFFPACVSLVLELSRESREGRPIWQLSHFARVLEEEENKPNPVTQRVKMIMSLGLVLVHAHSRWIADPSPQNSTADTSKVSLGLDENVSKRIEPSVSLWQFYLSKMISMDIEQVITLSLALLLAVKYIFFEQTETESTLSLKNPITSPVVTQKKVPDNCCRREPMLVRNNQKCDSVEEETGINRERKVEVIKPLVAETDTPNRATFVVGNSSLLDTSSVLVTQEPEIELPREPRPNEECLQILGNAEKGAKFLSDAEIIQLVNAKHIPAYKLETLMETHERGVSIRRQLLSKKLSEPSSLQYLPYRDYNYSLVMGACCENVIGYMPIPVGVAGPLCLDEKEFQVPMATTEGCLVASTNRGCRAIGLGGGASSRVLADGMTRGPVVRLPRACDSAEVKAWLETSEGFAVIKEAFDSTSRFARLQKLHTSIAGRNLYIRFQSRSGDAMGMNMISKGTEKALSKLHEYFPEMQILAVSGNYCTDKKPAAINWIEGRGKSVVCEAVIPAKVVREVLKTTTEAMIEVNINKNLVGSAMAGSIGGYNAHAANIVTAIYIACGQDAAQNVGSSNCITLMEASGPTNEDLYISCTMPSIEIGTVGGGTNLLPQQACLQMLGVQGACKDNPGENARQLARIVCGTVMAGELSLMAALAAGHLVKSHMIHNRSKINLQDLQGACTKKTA
Assay: HMG-CoA reductase (HMGCR) degradation in HepG2 cells by western blotting
Type: cell-based
Details: treated for 18 hours, ratio of HMG-CoA reductase to GAPDH, read-out: DC50
Method in brief: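 HepG2 cells (passage P105–P110) treated 18 hours with compounds in 10-point three-fold dilutions from 3 μM. RIPA lysates (15 μg protein, BCA-quantified) run on SDS-PAGE and immunoblotted for HMGCR (1:500) with GAPDH (1:20000) as loading control, primary antibodies 16 hours at 4° C.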

| SMILES | DC50 |
| --- | --- |
| C[C@H]1C=C2C=C[C@H](C)[C@H](CC[C@@H]3C[C@@H](O[Si](C)(C)C(C)(C)C)CC(=O)O3)[C@H]2[C@@H](OC(=O)NCCOCCOCCNc2cccc3c2CN(C2CCC(=O)NC2=O)C3=O)C1 (stereo partly drawn) [Compound 65, (1S,3R,7S,8S,8aR)-8-(2-((2R,4R)-4-((tert-butyldimethylsilyl)oxy)-6-oxotetrahydro-2H-pyran-2-yl)ethyl)-3,7-dimethyl-1,2,3,7,8,8a-hexahydronaphthalen-1-yl (2-(2-(2-((2-(2,6-dioxopiperidin-3-yl)-1-oxoisoindolin-4-yl)amino)ethoxy)ethoxy)ethyl)carbamate] | < 50 nM |
| C[C@H]1C=C2C=C[C@H](C)[C@H](CC[C@@H]3C[C@@H](O)CC(=O)O3)[C@H]2[C@@H](OC(=O)NCCOCCOCCNc2cccc3c2CN(C2CCC(=O)NC2=O)C3=O)C1 (stereo partly drawn) [Compound 66, (1S,3R,7S,8S,8aR)-8-(2-((2R,4R)-4-hydroxy-6-oxotetrahydro-2H-pyran-2-yl)ethyl)-3,7-dimethyl-1,2,3,7,8,8a-hexahydronaphthalen-1-yl (2-(2-(2-((2-(2,6-dioxopiperidin-3-yl)-1-oxoisoindolin-4-yl)amino)ethoxy)ethoxy)ethyl)carbamate] | < 50 nM |
| C[C@H]1C=C2C=C[C@H](C)[C@H](CC[C@@H]3C[C@@H](O[Si](C)(C)C(C)(C)C)CC(=O)O3)[C@H]2[C@@H](OC(=O)NCCOCCOCCNc2ccc3c(c2)C(=O)N(C2CCC(=O)NC2=O)C3=O)C1 (stereo partly drawn) [Compound 67, (1S,3R,7S,8S,8aR)-8-(2-((2R,4R)-4-((tert-butyldimethylsilyl)oxy)-6-oxotetrahydro-2H-pyran-2-yl)ethyl)-3,7-dimethyl-1,2,3,7,8,8a-hexahydronaphthalen-1-yl (2-(2-(2-((2-(2,6-dioxopiperidin-3-yl)-1,3-dioxoisoindolin-5-yl)amino)ethoxy)ethoxy)ethyl)carbamate] | < 50 nM |
| C[C@H]1C=C2C=C[C@H](C)[C@H](CC[C@@H]3C[C@@H](O)CC(=O)O3)[C@H]2[C@@H](OC(=O)NCCOCCOCCNc2ccc3c(c2)C(=O)N(C2CCC(=O)NC2=O)C3=O)C1 (stereo partly drawn) [Compound 68, (1S,3R,7S,8S,8aR)-8-(2-((2R,4R)-4-hydroxy-6-oxotetrahydro-2H-pyran-2-yl)ethyl)-3,7-dimethyl-1,2,3,7,8,8a-hexahydronaphthalen-1-yl (2-(2-(2-((2-(2,6-dioxopiperidin-3-yl)-1,3-dioxoisoindolin-5-yl)amino)ethoxy)ethoxy)ethyl)carbamate] | < 50 nM |
| CO[C@H]1CC(=O)O[C@H](CC[C@@H]2[C@@H]3C(=C[C@H](C)C[C@@H]3OC(=O)NCCOCCOCCNc3cccc4c3C(=O)N(C3CCC(=O)NC3=O)C4=O)C=C[C@@H]2C)C1 (stereo partly drawn) [Compound 69, (1S,3R,7S,8S,8aR)-8-(2-((2R,4R)-4-methoxy-6-oxotetrahydro-2H-pyran-2-yl)ethyl)-3,7-dimethyl-1,2,3,7,8,8a-hexahydronaphthalen-1-yl (2-(2-(2-((2-(2,6-dioxopiperidin-3-yl)-1,3-dioxoisoindolin-4-yl)amino)ethoxy)ethoxy)ethyl)carbamate] | < 50 nM |
| CC(C)[Si](O[C@H]1CC(=O)O[C@H](CC[C@@H]2[C@@H]3C(=C[C@H](C)C[C@@H]3OC(=O)NCCOCCOCCNc3cccc4c3C(=O)N(C3CCC(=O)NC3=O)C4=O)C=C[C@@H]2C)C1)(C(C)C)C(C)C (stereo partly drawn) [Compound 70, (1S,3R,7S,8S,8aR)-3,7-dimethyl-8-(2-((2R,4R)-6-oxo-4-((triisopropylsilyl)oxy)tetrahydro-2H-pyran-2-yl)ethyl)-1,2,3,7,8,8a-hexahydronaphthalen-1-yl (2-(2-(2-((2-(2,6-dioxopiperidin-3-yl)-1,3-dioxoisoindolin-4-yl)amino)ethoxy)ethoxy)ethyl)carbamate] | < 50 nM |
| C[C@H]1C=C2C=C[C@H](C)[C@H](CC[C@@H]3C[C@@H](O[Si](c4ccccc4)(c4ccccc4)C(C)(C)C)CC(=O)O3)[C@H]2[C@@H](OC(=O)NCCOCCOCCNc2cccc3c2C(=O)N(C2CCC(=O)NC2=O)C3=O)C1 (stereo partly drawn) [Compound 71, (1S,3R,7S,8S,8aR)-8-(2-((2R,4R)-4-((tert-butyldiphenylsilyl)oxy)-6-oxotetrahydro-2H-pyran-2-yl)ethyl)-3,7-dimethyl-1,2,3,7,8,8a-hexahydronaphthalen-1-yl (2-(2-(2-((2-(2,6-dioxopiperidin-3-yl)-1,3-dioxoisoindolin-4-yl)amino)ethoxy)ethoxy)ethyl)carbamate] | < 50 nM |
| C[C@H]1C=C2C=C[C@H](C)[C@H](CC[C@@H]3C[C@@H](O[Si](C)(C)C(C)(C)C)CC(=O)O3)[C@H]2[C@@H](OC(=O)NCCCCN2CCC(Nc3cccc4c3C(=O)N(C3CCC(=O)NC3=O)C4=O)CC2)C1 (stereo partly drawn) [Compound 72, (1S,3R,7S,8S,8aR)-8-(2-((2R,4R)-4-((tert-butyldimethylsilyl)oxy)-6-oxotetrahydro-2H-pyran-2-yl)ethyl)-3,7-dimethyl-1,2,3,7,8,8a-hexahydronaphthalen-1-yl (4-(4-((2-(2,6-dioxopiperidin-3-yl)-1,3-dioxoisoindolin-4-yl)amino)piperidin-1-yl)butyl)carbamate] | < 50 nM |
| C[C@H]1C=C2C=C[C@H](C)[C@H](CC[C@@H]3C[C@@H](O)CC(=O)O3)[C@H]2[C@@H](OC(=O)NCCCCN2CCC(Nc3cccc4c3C(=O)N(C3CCC(=O)NC3=O)C4=O)CC2)C1 (stereo partly drawn) [Compound 73, (1S,3R,7S,8S,8aR)-8-(2-((2R,4R)-4-hydroxy-6-oxotetrahydro-2H-pyran-2-yl)ethyl)-3,7-dimethyl-1,2,3,7,8,8a-hexahydronaphthalen-1-yl (4-(4-((2-(2,6-dioxopiperidin-3-yl)-1,3-dioxoisoindolin-4-yl)amino)piperidin-1-yl)butyl)carbamate] | < 50 nM |
| C[C@H]1C=C2C=C[C@H](C)[C@H](CC[C@@H]3C[C@@H](O[Si](C)(C)C(C)(C)C)CC(=O)O3)[C@H]2[C@@H](OC(=O)NCCCCCNC(=O)COc2cccc3c2C(=O)N(C2CCC(=O)NC2=O)C3=O)C1 (stereo partly drawn) [Compound 74, (1S,3R,7S,8S,8aR)-8-(2-((2R,4R)-4-((tert-butyldimethylsilyl)oxy)-6-oxotetrahydro-2H-pyran-2-yl)ethyl)-3,7-dimethyl-1,2,3,7,8,8a-hexahydronaphthalen-1-yl (5-(2-((2-(2,6-dioxopiperidin-3-yl)-1,3-dioxoisoindolin-4-yl)oxy)acetamido)pentyl)carbamate] | < 50 nM |
| C[C@H]1C=C2C=C[C@H](C)[C@H](CC[C@@H]3C[C@@H](O)CC(=O)O3)[C@H]2[C@@H](OC(=O)NCCCCCNC(=O)COc2cccc3c2C(=O)N(C2CCC(=O)NC2=O)C3=O)C1 (stereo partly drawn) [Compound 75, (1S,3R,7S,8S,8aR)-8-(2-((2R,4R)-4-hydroxy-6-oxotetrahydro-2H-pyran-2-yl)ethyl)-3,7-dimethyl-1,2,3,7,8,8a-hexahydronaphthalen-1-yl (5-(2-((2-(2,6-dioxopiperidin-3-yl)-1,3-dioxoisoindolin-4-yl)oxy)acetamido)pentyl)carbamate] | < 50 nM |
| C[C@H]1C=C2C=C[C@H](C)[C@H](CC[C@@H]3C[C@@H](O[Si](C)(C)C(C)(C)C)CC(=O)O3)[C@H]2[C@@H](OC(=O)NCCCCCCCC(=O)Nc2cccc3c2C(=O)N(C2CCC(=O)NC2=O)C3=O)C1 (stereo partly drawn) [Compound 76, (1S,3R,7S,8S,8aR)-8-(2-((2R,4R)-4-((tert-butyldimethylsilyl)oxy)-6-oxotetrahydro-2H-pyran-2-yl)ethyl)-3,7-dimethyl-1,2,3,7,8,8a-hexahydronaphthalen-1-yl (8-((2-(2,6-dioxopiperidin-3-yl)-1,3-dioxoisoindolin-4-yl)amino)-8-oxooctyl)carbamate] | < 50 nM |
| C[C@H]1C=C2C=C[C@H](C)[C@H](CC[C@@H]3C[C@@H](O)CC(=O)O3)[C@H]2[C@@H](OC(=O)NCCCCCCCC(=O)Nc2cccc3c2C(=O)N(C2CCC(=O)NC2=O)C3=O)C1 (stereo partly drawn) [Compound 77, (1S,3R,7S,8S,8aR)-8-(2-((2R,4R)-4-hydroxy-6-oxotetrahydro-2H-pyran-2-yl)ethyl)-3,7-dimethyl-1,2,3,7,8,8a-hexahydronaphthalen-1-yl (8-((2-(2,6-dioxopiperidin-3-yl)-1,3-dioxoisoindolin-4-yl)amino)-8-oxooctyl)carbamate] | < 50 nM |

From patent US12479840B2, “HMG-CoA reductase degradation inducing compound” (Uppthera, priority 2020, dated 2025)
